From patent EP0474580B1, “Use of 1-[3-(dimethylamino)propyl]-1-phenylphthalenes for the treatment of cerebrovascular disorders” (priority 1990, dated 1992)
Marks after values point to notes of the source that are not given here.

How the values were obtained:
KCN-induced coma = KCN-induced coma in mice; type: in vivo, mice (Crj:ICR); details: for coma time: vs vehicle
Experimental: Male mice (Crj:ICR) weighing 20-30 g were used. The mice were fasted for one day. The drugs, dissolved in saline, were injected intraperitoneally. 30 min after the injection, KCN, dissolved in saline, was injected intravenously at a dose of 1.3 mg/kg. The duration of disappearance of righting reflex was measured as coma time.

[1] = test system: vascular dementia (VD, incl. MID); details: patients with vascular dementia (VD, incl. MID); Nyth et al. 1989; cited from earlier work
[2] = test system: ischemia induced hippocampal neuronal damage; experiment: Ischemia-induced hippocampal death in gerbils; type: in vivo, Mongolian gerbils; details: for Survival neurons/mm mean: counted along CA1 after seven days; for protective effect against neuronal lesions: vs vehicle
Experimental: Test compounds were administered intraperitoneally to Male Mongolian gerbils 30 min before carotid occlusion. Carotid occlusion time was 5 min . Seven days after recovery, the animals were killed, brains removed, sectioned and surviving neurons were counted along CA1 in the hippocampus.

[3] = test system: carbon dioxide-induced amnesia; experiment: Carbon dioxide-induced amnesia in rats (one-trial passive avoidance test); type: in vivo, Sprague-Dawley (CD) rats; details: for group mean 'step-through' times: oral
Text: The test employed was a one-trial passive avoidance test in rats, using carbon dioxide asphyxiation to induce amnesia. Female Sprague-Dawley (CD) rats (A. Tick & Son Ltd.) in the body weight range 160-180g were used for the study. The one-trial passive avoidance apparatus consisted of a 32 x 32 x 32 cm chamber with opaque walls and a metal grid floor. A 6 cm wide , 25 cm long runway protruded from the front wall of the chamber. The runway was illuminated while the chamber was dark. When placed on the runway, a rat could enter the chamber through a 6 x 6 cm opening. A scrambled footshock could be delivered through the metal grid floor of the chamber. On the first day of the experiment, the rats received three pre-treatment training trials, during which each animal was placed on the end of the runway and the time taken to enter the chamber (the 'step-through' latency) was determined. On the second day of the experiment, groups of 10 animals were treated p.o. with test compound dissolved in saline or with saline. One hour after administration, an acquisition trial was performed. This was similar to a training trial, except that the rats received a footshock of 1.0 mA for 10 s commencing 10 s after entering the chamber. Immediately after the application of the footshock the animals were subjected to amnesic treatment. Amnesic treatment consisted of placing the rats in a box filled with carbon dioxide until respiratory arrest occurred; the rats were then revived by artificial respiration. 24 Hours after the acquisition trial, a single retrieval trial was given to each rat and the time taken to enter the chamber ('step-through' latency) was recorded for each animal.

[4] = test system: passive avoidance in ischemic gerbils; experiment: Step-down passive avoidance in ischemic gerbils; type: in vivo; details: for Step-down latency [log(s)] Mean: ischemic gerbils, testing phase (max. 60 s); for latency of ischemic gerbils (testing phase): vs ischemic control
Experimental: The test employed was step-down passive avoidance in gerbils treated with test compounds prior to occlusion of carotid arteries followed by acquisition trial (training phase).
Test compounds were administered intraperitoneally to gerbils 30 min prior to carotid occlusion or ketamine was administered intraperitoneally 10 min prior to carotid occlusion. The gerbils were anesthetized with 2% halothane contained in a mixture of 70% nitrogen and 30% oxygen. The right and left common carotid arteries were occluded for 5 min. The gerbils were trained for 5 min in a step-down type passive avoidance chamber (16x16x20 cm) two days after induced ischemia. Each gerbil was placed on a safety platform (6x16x20 cm) in the chamber and received a series of mild foot shocks (0.1 mA for 3 s every 6 s), when the gerbil stepped down to a floor made of metal rods. Gerbils were returned to the safety platform for testing 24 h later and their step-down latencies to the grid floor were recorded (max. 60 s). RESULTS

[5] = Toxicity study, oral administration in rats; type: in vivo; details: 350 mg/kg orally, male and female SD rats, observed for one week
Text: In toxicity studies male and female SD rats ranging in weight from 170 g to 200 g were used one day after fasting.

[6] = test system: depression associated with Alzheimer's disease; details: C.G. Gottfries, Psychopharmacology, 1988; cited from earlier work
[7] = test system: moderate dementia of Alzheimer's type (AD/SDAT) or multi-infarct dementia (MID); details: patients with moderate AD/SDAT or MID; Nyth et al. 1988/1990; cited from earlier work
[8] = test system: ischemia-induced death in bilateral carotid arterial ligation (BCAL); experiment: Brain ischemia-induced death in mice (bilateral carotid arterial ligation); type: in vivo, ICR MICE
Experimental: Male ICR MICE (Charles River) weighing 30 - 40 g were used after they were fasted for 1 day.
[…] Surviving mice were observed over 4 h.

CN(C)CCCC1(c2ccc(F)cc2)OCc2cc(C#N)ccc21 (stereo not drawn) [Citalopram, citalopram]
Coma time (s) Mean (KCN-induced coma; 1.25 mg/kg i.p. 30 min before KCN 1.3 mg/kg i.v.): 38.5 s | Coma time (s) Mean (KCN-induced coma; 2.5 mg/kg i.p. 30 min before KCN 1.3 mg/kg i.v.): 33.2 s | Coma time (s) Mean (KCN-induced coma; 5 mg/kg i.p. 30 min before KCN 1.3 mg/kg i.v.): 35.0 s | Coma time (s) Mean (KCN-induced coma; 10 mg/kg i.p. 30 min before KCN 1.3 mg/kg i.v.): 27.4 s | coma time (KCN-induced coma; 10 mg/kg intraperitoneal): significantly reduced coma time | emotional disturbances [1]: no significant improvement | Survival neurons/mm mean ([2]; 20 mg/kg i.p. 30 min before 5 min carotid occlusion): 38.0 neurons/mm | protective effect against neuronal lesions ([2]; 20 mg/kg): weak but non-significant protective effect | Survival neurons/mm mean ([2]; 40 mg/kg i.p. 30 min before 5 min carotid occlusion): 95.8 neurons/mm | protective effect against neuronal lesions ([2]; 40 mg/kg): significant (p < 0.05 ) protective effect | Latency ([3]; 5 mg/kg p.o. one hour before acquisition trial, CO2 treatment +, retrieval trial 24 h later (max. 180 s)): 31.2 s | Latency (s) ([3]; 10 mg/kg p.o. one hour before acquisition trial, CO2 treatment +, retrieval trial 24 h later (max. 180 s)): 77.2** s | Latency (s) ([3]; 20 mg/kg p.o. one hour before acquisition trial, CO2 treatment +, retrieval trial 24 h later (max. 180 s)): 114.3*** s | group mean 'step-through' times ([3]; 2 highest doses tested (i.e. 20 and 40 mg/kg)): marked and highly significant increase | group mean 'step-through' times ([3]; all doses tested, vs saline-treated control group): dose-related increases | Step-down latency [log(s)] Mean ([4]; 20 mg/kg i.p. 30 min prior to carotid occlusion): 1.386 log(s) | latency of ischemic gerbils (testing phase) ([4]; 20 mg/kg): significantly increased the latency | deaths [5]: no deaths were observed | effect against depression associated with Alzheimer's disease [6]: effective | effect on intellectual functions [7]: did not appear to have effect | emotional lability, motivation, confusion, fear-panic, irritation, reduced mood and restlessness [7]: significant improvements

CC(C(O)c1ccc(O)cc1)N1CCC(Cc2ccccc2)CC1 (stereo not drawn) [Ifenprodil]
Survival rate (%) 2 h after BCAL ([8]; 30 mg/kg,p.o., 30 min prior to ligation, 2 h after BCAL): 47** % | Survival rate (%) 4 h after BCAL ([8]; 30 mg/kg,p.o., 30 min prior to ligation, 4 h after BCAL): 20% | ischemia-induced death / survival rate 2 h after ligation ([8]; 30 mg/kg, 2 h after bilateral carotid arterial ligation, vs saline): significantly increased survival rate | ischemia-induced death / survival rate 4 h after ligation ([8]; 30 mg/kg, 4 h after bilateral carotid arterial ligation, vs saline): did not significantly increase survival rate

C1=Cc2cccc(OCC3CNCCO3)c2C1 (stereo not drawn) [Indeloxazine, reference compound]
Coma time (s) Mean (KCN-induced coma; 20 mg/kg i.p. 30 min before KCN 1.3 mg/kg i.v.): 13.8 s | coma time (KCN-induced coma; 20 mg/kg): significantly reduced the coma time | Step-down latency [log(s)] Mean ([4]; 40 mg/kg i.p. 30 min prior to carotid occlusion): 1.085 log(s) | latency of ischemic gerbils (testing phase) ([4]; 40 mg/kg): not significantly different

CNC1(c2ccccc2Cl)CCCCC1=O (stereo not drawn) [Ketamine, reference compound]
Survival neurons/mm mean ([2]; 100 mg/kg i.p. before 5 min carotid occlusion): 174.5 neurons/mm | protective effect against neuronal lesions ([2]; 100 mg/kg): significant (p < 0.01) protective effect | Step-down latency [log(s)] Mean ([4]; 120 mg/kg i.p. 10 min prior to carotid occlusion): 1.348 log(s) | latency of ischemic gerbils (testing phase) ([4]; 120 mg/kg): significantly increased the latency

NC(=O)CN1CCCC1=O [Piracetam, reference compound]
Latency (s) ([3]; 300 mg/kg p.o. one hour before acquisition trial, CO2 treatment +, retrieval trial 24 h later (max. 180 s)): 108.8*** s | time of entry ('step-through' latency) compared with vehicle ([3]; oral doses of 40 or 1000 mg/kg, indicates no marked muscle incoordination or CNS effects): no significant differences | 'step-through' latencies ([3]; piracetam treatment, dose not given): statistically significantly longer
